Residues, ends and D or L forms follow the SMILES beside them. No end group written: not given here.

For test [1], the target named is DR7 (DRB1*0701) (Homo sapiens, UniProt P01903+P01911, A100R/A102G/A103Q/D57E/D86V/E43K/F76Y/K127E/L162R/M171V/P40G/Q125H/Q99D/R33Q/R42Y/R54Q/S133A/S66F/T210M/V115G/Y107V/Y59L/Y89S). Nature of the test: biochemical. The class given is binding. The settings on record: read-out: DRB1*0701.
The target of test [2] is DR4w4 (DRB1*0401) (Homo sapiens, UniProt P01903+P01911, A100K/A169T/F76Y/I96L/K127E/L162R/M171V/N62H/P40V/Q125Y/R42H/S133A/S149N/S66Y/V115G/V209L/W38E). Nature of the test: biochemical. The class given is binding. To be noted: read-out: DRB1*0401.
Test [3] deals with DRB1*1101 (Homo sapiens, UniProt P01903+P01911, A100R/A169T/A87E/I96F/K41T/L162R/M171V/P40S/Q125H/Q178H/Q39Y/Q99D/R42S/S66Y/T262R/V115G/W38E). To be noted: read-out: DRB1*1101.
The target in test [4] is DR1 (DRB1*0101) (Homo sapiens, UniProt P01903+P01911, A100R/D57E/F55L/F60I/F76Y/I96L/L162R/M171V/P40L/Q125E/R42F/V115G/Y59C). Nature of the test: biochemical. The settings on record: read-out: DRB1*0101. The class given is binding.
The target in test [5] is DRB1*0901 (Homo sapiens, UniProt P01903+P01911, A100R/A103E/D57H/D86V/F55Y/F60I/F76Y/I96F/K127E/L162R/M171V/P40D/Q125H/Q99R/R33Q/R42F/S133A/S66N/T210M/V115G/W38K/Y107V/Y59G/Y89S). Kind of test: biochemical. The test is classed as binding. To be noted: read-out: DRB1*0901.
Test [6] has as its target DRB1*0405 (Homo sapiens, UniProt P01903+P01911, A100R/A169T/D86S/F76Y/I96L/K127E/L162R/M171V/N62H/P40V/Q125Y/R42H/S133A/S149N/S66Y/V115G/V209L/W38E). Nature of the test: biochemical. The class given is binding. To be noted: read-out: DRB1*0405.
The target of test [7] is DRB5*0101 (Homo sapiens, UniProt P01903+Q30154). The settings on record: read-out: DRB5*0101.
Test [8] concerns the target H-2Db (Mus musculus, UniProt P01899). Nature of the test: biochemical. The test is classed as binding, murine.

H-2Db, sequence (P61769 21-119): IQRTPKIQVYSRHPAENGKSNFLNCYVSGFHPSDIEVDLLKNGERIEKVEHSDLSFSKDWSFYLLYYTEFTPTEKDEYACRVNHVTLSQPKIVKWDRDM
H-2Db, sequence (P01899 25-362): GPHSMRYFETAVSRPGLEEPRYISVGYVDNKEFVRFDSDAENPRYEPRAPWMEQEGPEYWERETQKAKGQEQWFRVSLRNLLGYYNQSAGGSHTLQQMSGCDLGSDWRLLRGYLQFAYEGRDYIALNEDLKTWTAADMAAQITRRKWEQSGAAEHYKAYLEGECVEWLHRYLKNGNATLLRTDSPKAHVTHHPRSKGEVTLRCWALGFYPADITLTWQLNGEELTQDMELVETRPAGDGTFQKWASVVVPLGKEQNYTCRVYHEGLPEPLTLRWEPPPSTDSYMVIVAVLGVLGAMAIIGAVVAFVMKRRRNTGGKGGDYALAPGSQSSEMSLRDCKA

For the compound “782.03 (YARSQTTLKAKT; also: non-natural residue (15)) [Peptide 782.03]”, the IC50 in test [1] was 1.2 µM; in test [2], 0.46 nM; in test [3], 3.9 nM; in test [4], 1.5 nM.
For “820.02 (YARRQTTLKAAA; also: non-natural residue (15A)) [Peptide 820.02]”, in that order: 8.33 µM, 0.35 nM, 1.2 nM and 1.6 nM.
For `CC[C@H](C)[C@H](NC(=O)[C@H](CC(=O)O)NC(=O)[C@H](CCC(N)=O)NC(=O)[C@H](CC(C)C)NC(=O)[C@H](CO)NC(=O)[C@@H](NC(=O)[C@@H](N)CC(N)=O)[C@@H](C)O)C(=O)N[C@@H](CCC(=O)O)C(=O)N[C@H](C(=O)N[C@H](C(=O)N[C@@H](CS)C(=O)N[C@H](C(=O)N[C@@H](Cc1ccc(O)cc1)C(=O)N[C@@H](CS)C(=O)N[C@@H](CCCCN)C(=O)O)C(C)C)[C@@H](C)O)[C@@H](C)CC` [Peptide 85.0007] (H-NTSLQDIEITCVYCK-OH), the IC50 is over 17.2 µM in test [1]; over 14700 nM in test [3]; 30.9 µM in test [5]; 4.58 µM in test [6]; over 12100 nM in test [4].
Consider `CC(C)C[C@H](NC(=O)[C@H](Cc1c[nH]c2ccccc12)NC(=O)[C@H](CCCCN)NC(=O)CNC(=O)[C@H](CC(C)C)NC(=O)[C@H](CS)NC(=O)[C@H](Cc1c[nH]cn1)NC(=O)[C@H](CS)NC(=O)[C@@H](NC(=O)[C@H](CCCNC(=N)N)NC(=O)[C@H](CCC(=O)O)NC(=O)[C@H](CC(C)C)NC(=O)[C@H](CO)NC(=O)[C@H](Cc1c[nH]cn1)NC(=O)[C@H](C)NC(=O)[C@@H](N)CCC(N)=O)C(C)C)C(=O)NCC(=O)N[C@@H](Cc1c[nH]cn1)C(=O)N1CCC[C@H]1C(=O)N[C@@H](CC(=O)O)C(=O)N[C@@H](CCCCN)C(=O)O` [Peptide 868.01] (H-QAHSLERVCHCLGKWLGHPDK-OH), for which the IC50 in test [1] was over 250 µM; in test [7], 2500 nM.
Compound `CSCC[C@H](NC(=O)[C@H](Cc1c[nH]c2ccccc12)NC(=O)[C@@H](NC(=O)[C@H](Cc1ccc(O)cc1)NC(=O)[C@H](Cc1ccccc1)NC(=O)[C@H](CC(=O)O)NC(=O)[C@H](Cc1ccc(O)cc1)NC(=O)[C@@H](NC(=O)[C@@H](N)CO)C(C)C)C(C)C)C(=O)O` [Peptide F138.03] displayed an IC50 in test [8] of 3.37 µM.
The same measure, in the same setting: under SIQFFGEL [Peptide F079.04] stands over 44 µM.
The same measure, in the same setting: under SIQFFGERAL [Peptide F079.03] stands over 44 µM.

These data come from US9340577B2, “HLA binding motifs and peptides and their uses” (priority 1992, dated 2016).
